Where a name gives a salt, the structure may show the parent alone. Read-outs that look alike come from different tables or passages of the source.
Columns and labels:
Type in all cases: biochemical
[1] = target: T1, human JAK1 (a.a. 837-1142) (Homo sapiens, UniProt P23458); assay: In vitro JAK kinase assay (HTRF, phosphorylation of a biotinylated peptide), JAK1; conditions: read-out: JAK1 IC50
T1 construct: human JAK1 (a.a. 837-1142); His tag (N); made in house; host or cells: insect cells (baculovirus)
T1 sequence (P23458 849-1154): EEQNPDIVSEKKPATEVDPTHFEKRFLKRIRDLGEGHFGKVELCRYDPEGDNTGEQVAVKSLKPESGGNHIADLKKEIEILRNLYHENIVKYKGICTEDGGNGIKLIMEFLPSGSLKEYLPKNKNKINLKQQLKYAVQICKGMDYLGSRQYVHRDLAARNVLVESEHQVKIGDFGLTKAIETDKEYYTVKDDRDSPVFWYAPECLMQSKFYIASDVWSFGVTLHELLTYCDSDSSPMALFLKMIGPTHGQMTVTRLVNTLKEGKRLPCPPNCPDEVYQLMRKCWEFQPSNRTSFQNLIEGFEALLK
Outline: (§1)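 Kinase reactions ran at room temperature for 1 h with ATP matched per isoform (JAK1 90 μM, JAK2 30 μM, JAK3 3 μM). After an EDTA stop, the phosphorylated biotin-peptide was read by HTRF using Eu-Py20 and SA-APC after 40 min binding.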

[2] = target: T2, human JAK3 (a.a. 781-1124) (Homo sapiens, UniProt P52333); assay: In vitro JAK kinase assay (HTRF, phosphorylation of a biotinylated peptide), JAK3
T2 construct: JAK3 (a.a. 781-1124); His tag (N); made in house; host or cells: insect cells (baculovirus)
T2 sequence (P52333 781-1124): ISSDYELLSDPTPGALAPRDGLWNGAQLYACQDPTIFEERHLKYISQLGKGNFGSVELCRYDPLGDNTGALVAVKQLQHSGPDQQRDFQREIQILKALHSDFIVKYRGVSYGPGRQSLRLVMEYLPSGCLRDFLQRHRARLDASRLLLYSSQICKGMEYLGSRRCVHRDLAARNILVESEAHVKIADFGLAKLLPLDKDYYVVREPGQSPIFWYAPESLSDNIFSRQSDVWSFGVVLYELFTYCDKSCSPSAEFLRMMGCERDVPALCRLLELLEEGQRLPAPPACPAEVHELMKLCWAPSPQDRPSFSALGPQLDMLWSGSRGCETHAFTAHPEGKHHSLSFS
Outline: as §1

[3] = target: T3, human JAK2 (a.a. 828-1132) (Homo sapiens, UniProt O60674); assay: In vitro JAK kinase assay (HTRF, phosphorylation of a biotinylated peptide), JAK2
T3 construct: JAK2 (a.a. 828-1132); His tag (N); made in house; host or cells: insect cells (baculovirus)
T3 sequence (O60674 828-1132): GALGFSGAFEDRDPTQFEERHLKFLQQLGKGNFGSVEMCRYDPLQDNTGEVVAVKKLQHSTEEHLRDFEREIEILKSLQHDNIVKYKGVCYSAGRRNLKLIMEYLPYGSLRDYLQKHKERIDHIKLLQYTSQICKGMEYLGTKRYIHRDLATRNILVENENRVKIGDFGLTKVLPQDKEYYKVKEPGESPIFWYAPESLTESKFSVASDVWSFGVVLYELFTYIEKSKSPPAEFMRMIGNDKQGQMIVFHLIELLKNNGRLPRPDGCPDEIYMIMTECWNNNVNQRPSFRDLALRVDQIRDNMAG
Outline: as §1

TYK2 = TYK2 (Homo sapiens, UniProt P29597); assay: TYK2 kinase inhibition (Table A1)
TYK2, sequence (P29597 whole entry): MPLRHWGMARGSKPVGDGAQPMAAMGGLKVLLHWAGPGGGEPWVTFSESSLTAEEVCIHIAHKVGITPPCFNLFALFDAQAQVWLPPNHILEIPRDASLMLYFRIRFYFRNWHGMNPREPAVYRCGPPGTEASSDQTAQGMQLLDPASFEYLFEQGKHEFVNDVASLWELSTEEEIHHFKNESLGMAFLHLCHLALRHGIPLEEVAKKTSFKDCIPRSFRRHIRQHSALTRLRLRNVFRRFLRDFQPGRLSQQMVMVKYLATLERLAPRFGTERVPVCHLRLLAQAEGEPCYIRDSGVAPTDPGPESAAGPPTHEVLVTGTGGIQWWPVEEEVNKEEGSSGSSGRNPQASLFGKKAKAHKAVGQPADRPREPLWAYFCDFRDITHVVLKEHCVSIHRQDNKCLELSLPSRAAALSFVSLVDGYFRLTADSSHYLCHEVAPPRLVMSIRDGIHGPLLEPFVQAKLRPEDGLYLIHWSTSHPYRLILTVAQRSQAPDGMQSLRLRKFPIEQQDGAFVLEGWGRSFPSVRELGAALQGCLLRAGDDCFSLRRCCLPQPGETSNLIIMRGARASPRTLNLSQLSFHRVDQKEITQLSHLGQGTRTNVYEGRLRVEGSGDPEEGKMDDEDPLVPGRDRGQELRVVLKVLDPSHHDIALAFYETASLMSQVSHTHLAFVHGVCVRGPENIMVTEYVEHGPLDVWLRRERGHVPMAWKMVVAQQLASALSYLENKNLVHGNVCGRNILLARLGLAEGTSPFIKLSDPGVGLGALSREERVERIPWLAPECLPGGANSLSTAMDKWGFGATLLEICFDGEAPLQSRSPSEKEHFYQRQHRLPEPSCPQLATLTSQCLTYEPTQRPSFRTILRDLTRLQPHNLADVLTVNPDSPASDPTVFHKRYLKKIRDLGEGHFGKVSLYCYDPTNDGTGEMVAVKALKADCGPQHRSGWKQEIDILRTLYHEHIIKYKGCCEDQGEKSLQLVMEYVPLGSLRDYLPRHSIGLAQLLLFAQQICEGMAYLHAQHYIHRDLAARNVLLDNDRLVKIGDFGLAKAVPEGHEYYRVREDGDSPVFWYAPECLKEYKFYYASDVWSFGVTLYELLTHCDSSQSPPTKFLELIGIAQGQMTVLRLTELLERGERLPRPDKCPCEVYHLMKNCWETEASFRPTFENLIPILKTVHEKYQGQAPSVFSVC

`O=C(C[C@@H]1CCN(c2nc3ccccc3s2)C1)Nc1ccc2cc1CCc1cncc(c1)Nc1ncc(Cl)c(n1)N2` [Example D137, 2-[(3S)-1-(1,3-Benzothiazol-2-yl)pyrrolidin-3-yl]-N-[6-chloro-2,4,8,18,22-pentaazatetracyclo[14.3.1.1(3,7).1(9,13)]docosa-1(20),3(22),4,6,9(21),10,12,16,18-nonaen-12-yl]acetamide tris(trifluoroacetate)] gave an IC50 ([1]; Table D1) of 1.6 nM, an IC50 ([2]; Table D1) greater than 1000 nM and an IC50 ([3]; Table D1) of 15 nM. For the same molecule, the IC50 (TYK2; Table D1) was 66 nM.
`NC(=O)N1CCN(C(=O)COc2ccc3cc2CCc2cncc(c2)Nc2ncc(Cl)c(n2)N3)CC1` [Example D270, 4-({[6-Chloro-2,4,8,18,22-pentaazatetracyclo[14.3.1.1(3,7).1(9,13)]docosa-1(20),3(22),4,6,9(21),10,12,16,18-nonaen-12-yl]oxy}acetyl)piperazine-1-carboxamide bis(trifluoroacetate)] showed an IC50 ([1]; Table D1) of 23 nM, an IC50 ([2]; Table D1) greater than 400 nM and an IC50 ([3]; Table D1) of 80 nM. It also gave an IC50 (TYK2; Table D1) of 265 nM.
`O=C(COc1ccc2cc1CCc1cncc(c1)Nc1ncc(Cl)c(n1)N2)N1CCN(Cc2ccncc2)CC1` [Example D256, 6-Chloro-12-{2-oxo-2-[4-(pyridin-4-ylmethyl)piperazin-1-yl]ethoxy}-2,4,8,18,22-pentaazatetracyclo[14.3.1.1(3,7).1(9,13)]docosa-1(20),3(22),4,6,9(21),10,12,16,18-nonaene tris(trifluoroacetate)] gave an IC50 ([1]; Table D1) of 150 nM, an IC50 ([2]; Table D1) greater than 400 nM and an IC50 ([3]; Table D1) of 217 nM. It also gave an IC50 (TYK2; Table D1) greater than 400 nM.
`O=C(CC1CN(C(=O)c2ccn[nH]2)C1)Nc1ccc2cc1CCc1cncc(c1)Nc1ncc(Cl)c(n1)N2` [Example D150, N-[6-Chloro-2,4,8,18,22-pentaazatetracyclo[14.3.1.1(3,7).1(9,13)]docosa-1(20),3(22),4,6,9(21),10,12,16,18-nonaen-12-yl]-2-[1-(1H-pyrazol-5-ylcarbonyl)azetidin-3-yl]acetamide bis(trifluoroacetate)] showed an IC50 ([1]; Table D1) of 33 nM, an IC50 ([2]; Table D1) greater than 1000 nM and an IC50 ([3]; Table D1) of 136 nM. The IC50 (TYK2; Table D1) was 435 nM.
`O=C(COc1ccc2cc1CCc1cncc(c1)Nc1ncc(Cl)c(n1)N2)N1CCNCC1` [Example D229, 6-Chloro-12-(2-oxo-2-piperazin-1-ylethoxy)-2,4,8,18,22-pentaazatetracyclo[14.3.1.1(3,7).1(9,13)]docosa-1(20),3(22),4,6,9(21),10,12,16,18-nonaene tris(trifluoroacetate)] was tested, and the IC50 ([1]; Table D1) was 153 nM, the IC50 ([2]; Table D1) was greater than 400 nM and the IC50 ([3]; Table D1) was 235 nM. It also gave an IC50 (TYK2; Table D1) greater than 400 nM.
`O=C(C[C@H]1CCCN(C(=O)c2ccccc2)C1)Nc1ccc2cc1CCc1cncc(c1)Nc1ncc(Cl)c(n1)N2` [Example D207, 2-[(3R)-1-Benzoylpiperidin-3-yl]-N-[6-chloro-2,4,8,18,22-pentaazatetracyclo[14.3.1.1(3,7).1(9,13)]docosa-1(20),3(22),4,6,9(21),10,12,16,18-nonaen-12-yl]acetamide bis(trifluoroacetate)] showed an IC50 ([1]; Table D1) of 9.4 nM, an IC50 ([2]; Table D1) of 109 nM and an IC50 ([3]; Table D1) of 5.4 nM. The IC50 (TYK2; Table D1) was 56 nM.
`O=C(CC1CN(c2nccs2)C1)Nc1ccc2cc1CCc1cncc(c1)Nc1ncc(Cl)c(n1)N2` [Example D152, N-[6-Chloro-2,4,8,18,22-pentaazatetracyclo[14.3.1.1(3,7).1(9,13)]docosa-1(20),3(22),4,6,9(21),10,12,16,18-nonaen-12-yl]-2-[1-(1,3-thiazol-2-yl)azetidin-3-yl]acetamide tris(trifluoroacetate)] was tested, and the IC50 ([1]; Table D1) was 21 nM, the IC50 ([2]; Table D1) was greater than 400 nM and the IC50 ([3]; Table D1) was 95 nM. For the same molecule, the IC50 (TYK2; Table D1) was 265 nM.
`O=C(COc1ccc2cc1CCc1cncc(c1)Nc1ncc(Cl)c(n1)N2)N1CCN(C(=O)C2CCOC2)CC1` (centres unmarked) [Example D271, 6-Chloro-12-{2-oxo-2-[4-(tetrahydrofuran-3-ylcarbonyl)piperazin-1-yl]ethoxy}-2,4,8,18,22-pentaazatetracyclo[14.3.1.1(3,7).1(9,13)]docosa-1(20),3(22),4,6,9(21),10,12,16,18-nonaene bis(trifluoroacetate)] showed an IC50 ([1]; Table D1) of 75 nM, an IC50 ([2]; Table D1) greater than 400 nM and an IC50 ([3]; Table D1) greater than 400 nM. It also gave an IC50 (TYK2; Table D1) greater than 400 nM.
`Cc1cc(C(=O)N2CCN(C(=O)COc3ccc4cc3CCc3cncc(c3)Nc3ncc(Cl)c(n3)N4)CC2)n[nH]1` [Example D266, 6-Chloro-12-(2-{4-[(5-methyl-1H-pyrazol-3-yl)carbonyl]piperazin-1-yl}-2-oxoethoxy)-2,4,8,18,22-pentaazatetracyclo[14.3.1.1(3,7).1(9,13)]docosa-1(20),3(22),4,6,9(21),10,12,16,18-nonaene tris(trifluoroacetate)] showed an IC50 ([1]; Table D1) of 31 nM, an IC50 ([2]; Table D1) greater than 400 nM and an IC50 ([3]; Table D1) of 21 nM. It also gave an IC50 (TYK2; Table D1) greater than 400 nM.
`O=C(Nc1ccc(F)cc1)N1CCC(CCOc2ccc3cc2CCc2cncc(c2)Nc2ncc(Cl)c(n2)N3)CC1` [Example D168, 4-(2-{[6-Chloro-2,4,8,18,22-pentaazatetracyclo[14.3.1.1(3,7).1(9,13)]docosa-1(20),3(22),4,6,9(21),10,12,16,18-nonaen-12-yl]oxy}ethyl)-N-(4-fluorophenyl)piperidine-1-carboxamide bis(trifluoroacetate)] gave an IC50 ([1]; Table D1) of 34 nM, an IC50 ([2]; Table D1) greater than 400 nM and an IC50 ([3]; Table D1) of 255 nM. For the same molecule, the IC50 (TYK2; Table D1) was greater than 400 nM.
In the case of `COC(=O)Cn1c(=O)oc2c3cc(cc21)Nc1nc(ncc1Cl)Nc1cccc(c1)CC3` [Example D183, Methyl [4-chloro-19-oxo-18-oxa-2,6,8,20,25-pentaazapentacyclo[14.6.1.1(3,7).1(9,13).0(17,21)]pentacosa-1(23),3(25),4,6,9(24),10,12,16,21-nonaen-20-yl]acetate trifluoroacetate], the IC50 ([1]; Table D1) is reported as 12 nM, the IC50 ([2]; Table D1) is reported as 64 nM and the IC50 ([3]; Table D1) is reported as 22 nM. It also gave an IC50 (TYK2; Table D1) of 166 nM.
Work on `O=C(Cc1c[nH]c2ccccc12)Nc1ccc2cc1CCc1cccc(c1)Nc1ncc(Cl)c(n1)N2` [Example C29, N-[6-Chloro-2,4,8,22-tetraazatetracyclo[14.3.1.1(3,7).1(9,13)]docosa-1(20),3(22),4,6,9(21),10,12,16,18-nonaen-12-yl]-2-(1H-indol-3-yl)acetamide bis(trifluoroacetate)] yielded an IC50 [1] of 43 nM, an IC50 [2] of 1030 nM and an IC50 [3] of 68 nM. For the same molecule, the IC50 (TYK2) was 227 nM.
Molecule `O=C(C[C@@H]1CCCN(C(=O)c2ccccc2)C1)Nc1ccc2cc1CCc1cccc(c1)Nc1ncc(Cl)c(n1)N2` [Example D202, 2-[(3S)-1-Benzoylpiperidin-3-yl]-N-[6-chloro-2,4,8,22-tetraazatetracyclo[14.3.1.1(3,7).1(9,13)]docosa-1(20),3(22),4,6,9(21),10,12,16,18-nonaen-12-yl]acetamide trifluoroacetate] has an IC50 ([1]; Table D1) of 22 nM, an IC50 ([2]; Table D1) of 65 nM and an IC50 ([3]; Table D1) of 12 nM. It also gave an IC50 (TYK2; Table D1) of 30 nM.
With `Cc1cc(C(=O)N2CCN(C(=O)COc3ccc4cc3CCc3cncc(c3)Nc3ncc(Cl)c(n3)N4)CC2)no1` [Example D251, 6-Chloro-12-(2-{4-[(5-methylisoxazol-3-yl)carbonyl]piperazin-1-yl}-2-oxoethoxy)-2,4,8,18,22-pentaazatetracyclo[14.3.1.1(3,7).1(9,13)]docosa-1(20),3(22),4,6,9(21),10,12,16,18-nonaene bis(trifluoroacetate)] the IC50 ([1]; Table D1) was 18 nM, the IC50 ([2]; Table D1) was greater than 400 nM and the IC50 ([3]; Table D1) was 17 nM. For the same molecule, the IC50 (TYK2; Table D1) was greater than 400 nM.
